Reference: ChEMBL document CHEMBL1128119, “Partial structures of the fungal toxin aflatrem, methyl-substituted 6,8-dioxabicyclo[3.2.1]octan-2-ones have anticonvulsant activity” (Bioorg Med Chem Lett, 1995)

Legend:
Mus musculus = organism: Mus musculus; experiment: Effective dose required for anticonvulsant activity against pentylenetetrazole-induced seizures in mice; assay type: functional
[1] = biological target: GABA-A receptor; anion channel; experiment: Displacement of [35S]TBPS from Gamma-aminobutyric acid A (GABA-A) receptor of rat cerebral cortex; assay type: tissue-based
[2] = Toxic dose at which 50 percent of the mice failed the rotarod toxicity test; assay type: organism-based; conditions: mouse, in vivo

Row | Compound | ED50 (Mus musculus) [mg/kg] | IC50 [1] [µM] | TD50 [2] [mg/kg]
1 | C[C@@H]1CC(=O)[C@H]2O[C@@H]1OC2(C)C | 110 | 2850 | –
2 | C[C@H]1CC(=O)[C@@H]2O[C@H]1OC2(C)C | 145 | 3090 | –
3 | CCC1(C)CCOC1=O (stereo not drawn) | – | – | > 500
4 | C=CC(C)(C)c1cccc2[nH]c3c(c12)C[C@@H]1CC[C@@]2(O)C4=CC(=O)[C@@H]5O[C@@]4(CC[C@]2(C)[C@@]31C)OC5(C)C | – | 4.3 | –
5 | CC1CC(=O)C2OC1(C)OC2(C)C (stereo not drawn) | 140 | 2310 | > 300
6 | CC1CC(=O)C2OC1OC2(C)C (stereo not drawn) | 131 | 3020 | > 300
7 | CCC1CCCCC1=O (stereo not drawn) | 140 | 1200 | 245
8 | CC1(C)OC2CCC(=O)C1O2 (stereo not drawn) | 192 | 5090 | > 300
9 | CC1(C)OC2C=CC(=O)C1O2 (stereo not drawn) | > 300 | – | < 100
10 | CC12CCC(=O)C(O1)C(C)(C)O2 (stereo not drawn) | 247 | 3130 | > 300
